Measured values: patent US7332489B2, “Methods and compositions of novel triazine compounds” (Reddy US Therapeutics, Inc., priority 2003, dated 2008)
Where a name gives a salt, the structure may show the parent alone. Read-outs that look alike come from different tables or passages of the source.

Test system: TNF-α induced IL-6
Test: TNF-α-induced IL-6 production determined by IL-6 ELISA
Assay type: cell-based
Conditions: for activity at 10 µM / inhibition at 10 µM: Homo sapiens; for activity at 10 µM: class = % of control IL6 production
Method: Human aortic endothelial cells (HAEC, Clonetics) were cultured according to manufacturer in growth medium (Clonetics): basal medium containing human epidermal growth factor, hydrocortisone, vascular endothelial growth factor, heparin binding growth factor-B, long R3-insulin-like growth factor-1, ascorbic acid, gentamicin/amphotericin and 5% FBS. These cell were allowed to reach at least 90% confluency before subjected to experimental treatments. […] Tumor necrosis factor α was from R&D Systems.
All treatments, compound-added and controls were carried out in serum free media containing 0.2% albumin. Media from all conditions were collected and used for IL-6 ELISA.
IL-6 ELISA was carried out using human IL-6 DuoSet ELISA development kit as described by manufacturer (R&D Systems). Mouse anti-human Il-6 was used as the capture antibody (2 ug/ml) and biotinylated goat anti-human IL-6 (200 ng/ml) was used as the detection antibody. Culture media were incubated with capture antibody (in 96 well) for 2 h at room temperature. Wells were washed three times with wash buffer (0.05% tween-20 in phosphate buffered saline (PBS) pH 7.4) followed by incubation with detection antibody for 2 h at room temperature. Following three washes wells were incubated with Streptavidin-HRP for 20 min. Color development was read at 450 nm in a Microplate reader.

[1] = HAEC, 10 uM compound, TNF stimulation = 100%
[2] = 24 h, Table 5, first part, read-out: Inhibition of TNF-induced IL6 production
[3] = 24 h, Table 5, second part, column 1, read-out: Inhibition of TNF-induced IL6, production

For `COc1ccc(Nc2nc(NC3CC3)nc(NC3CC3)n2)cc1F` [Compound 157, N,N′-dicyclopropyl-N″-(3-fluoro-4-methoxy-phenyl)-1,3,5-triazine-2,4,6-triamine], the “% IL6 production compare to TNF stimulation of IL6 (100%), Compds tested @ 10 uM HAEC, IL6” value [1] was 60.48% and the activity at 10 µM [2] was 50 to 75%.

With `CN1CCC(N(C)c2nc(Nc3ccc4ccccc4c3)nc(NC3CCCCCC3)n2)CC1` [Compound 172, N-Cycloheptyl-N′-methyl-N′-(1-methyl-piperidin-4-yl)-N″-naphthalen-2-yl-[1,3,5]tri-azine-2,4,6-triamine] the inhibition at 10 µM (24 h, read-out: Inhibition of TNF-induced IL6 production, Table 7, first part) was 85 to 100%, the inhibition at 10 µM (24 h, read-out: Inhibition of TNF-induced IL6 production, Table 7, second part, column 1) was 65 to 85% and the “% IL6 production compare to TNF stimulation of IL6 (100%), Compds tested @ 10 μM HAEC, IL6” value (Table 7, HAEC, 10 μM compound, TNF stimulation = 100%) was 18%.

In the case of `CCN1CCCC1CNc1nc(Nc2ccc(N(C)C)cc2)nc(NC2CCCCCC2)n1` (stereo not drawn) [Compound 25, N^2-cycloheptyl-N^4-[4-(dimethylamino)phenyl]-N^6-[(1-ethyl-2-pyrrolidinyl)methyl]-1,3,5-triazine-2,4,6-triamine], the activity at 10 µM [3] was 0 to 25%.

`CCN1CCCC1CNc1nc(NC2CCCCCC2)nc(N(CC#N)c2ccccc2)n1` (stereo not drawn) [Compound 44, [(4-(cycloheptylamino)-6-{[(1-ethyl-2-pyrrolidinyl)methyl]amino}-1,3,5-triazin-2-yl)(phenyl)amino]acetonitrile] showed an activity at 10 µM [3] of 0 to 25%.

`COc1ccc(Nc2nc(NC3CCCCCC3)nc(N3CCCC4CCCCC43)n2)cc1F` (stereo not drawn) [Compound 84, N^2-cycloheptyl-N^4-(3-fluoro-4-methoxyphenyl)-6-octahydro-1(2H)-quinolinyl-1,3,5-triazine-2,4-diamine] gave an activity at 10 µM [2] of 25 to 50%.

Work on `COc1ccc(Nc2nc(Cl)nc(NC3CCCCCC3)n2)cc1F` [Compound 127, 6-Chloro-N-cycloheheptyl-N′-(3-fluoro-4-methoxy-phenyl)-[1,3,5]triazine-2,4-diamine] yielded an activity at 10 µM [2] of 25 to 50%.

Work on `COc1ccc(Nc2nc(NC3CCCCCC3)nc(N3CCCC3)n2)cc1F` [Compound 82, N^2-cycloheptyl-N^4-(3-fluoro-4-methoxyphenyl)-6-(1-pyrrolidinyl)-1,3,5-triazine-2,4-diamine] yielded an activity at 10 µM [2] of 25 to 50%.

Compound `COc1ccc(Nc2nc(NC3CCCCCC3)nc(N(C)Cc3ccccc3)n2)cc1` [Compound 178, N-Benzyl-N′-cycloheptyl-N″-(4-methoxy-phenyl)-N-methyl-[1,3,5]triazine-2,4,6-tri-amine] has an inhibition at 10 µM (24 h, Table 7, first part, read-out: Inhibition of TNF-induced IL6 production) of 65 to 85%.

`CCN1CCCC1CNc1nc(Nc2ccccn2)nc(NC2CCCCCC2)n1` (stereo not drawn) [Compound 34, N^2-cycloheptyl-N^4-[(1-ethyl-2-pyrrolidinyl)methyl]-N^6-(2-pyridinyl)-1,3,5-triazine-2,4,6-triamine] was tested, and the activity at 10 µM [2] was 0 to 25% and the activity at 10 µM [3] was 0 to 25%.

`CCN1CCCC1CNc1nc(Nc2ccc(OC)c(F)c2)nc(N2CCN(Cc3ccc4c(c3)OCO4)CC2)n1` (stereo not drawn) [Compound 72, N^6-[4-(1,3-benzodioxol-5-ylmethyl)-1-piperazinyl]-N^2-[(1-ethyl-2-pyrrolidinyl)methyl]-N^4-(3-fluoro-4-methoxyphenyl)-1,3,5-triazine-2,4-diamine] gave an activity at 10 µM [2] of 0 to 25% and an activity at 10 µM [3] of 25 to 50%.

`CCN1CCCC1CNc1nc(Nc2ccc(OC)c(Cl)c2)nc(NC2CCCCCC2)n1` (stereo not drawn) [Compound 48, N^2-(3-chloro-4-methoxyphenyl)-N^4-cycloheptyl-N^6-[(1-ethyl-2-pyrrolidinyl)methyl]-1,3,5-triazine-2,4,6-triamine] showed an activity at 10 µM [2] of 25 to 50%.

In the case of `CCN1CCCC1CNc1nc(Nc2ccc3c(c2)OCCO3)nc(NC2CCCCCC2)n1` (stereo not drawn) [Compound 24, N^2-cycloheptyl-N^4-(2,3-dihydro-1,4-benzodioxin-6-yl)-N^6-[(1-ethyl-2-pyrrolidinyl)methyl]-1,3,5-triazine-2,4,6-triamine], the activity at 10 µM [3] was 0 to 25%.

For `CCN1CCCC1CNc1nc(Nc2ccc(OC)c(F)c2)nc(N2CCN(C)CC2)n1` (stereo not drawn) [Compound 62, N^2-[(1-ethyl-2-pyrrolidinyl)methyl]-N^4-(3-fluoro-4-methoxyphenyl)-6-(4-methyl-1-piperazinyl)-1,3,5-triazine-2,4-diamine], the activity at 10 µM [3] was 25 to 50%.

With `CCN1CCCC1CNc1nc(Nc2ccc(N3CCN(C)CC3)cc2)nc(NC2CCCCCC2)n1` (stereo not drawn) [Compound 28, N^2-cycloheptyl-N^4-[(1-ethyl-2-pyrrolidinyl)methyl]-N^6-[4-(4-methyl-1-piperazinyl)phenyl]-1,3,5-triazine-2,4,6-triamine] the activity at 10 µM [2] was 0 to 25%.

`COc1ccc(Nc2nc(NC3CCCCCC3)nc(OC3CCCNC3)n2)cc1Cl` (stereo not drawn) was tested, and the “Inflammation Data, cell death at 10 uM” value (10 uM) was 20% and the inhibition at 10 µM (10 uM, read-out: Inflammation Data, inhibition at 10 uM) was 60%.

With `COc1ccc(Nc2nc(NC3CCCCCC3)nc(OCC3CCCN3C)n2)cc1Cl` (stereo not drawn) the “Inflammation Data, cell death at 10 uM” value (10 uM) was “total cell death” and the “Inflammation Data, inhibition at 10 uM” value (10 uM) was “complete inhibition”.

`COc1ccc(Nc2nc(NC3CCCCCC3)nc(N(C)C3CCN(C)CC3)n2)cc1F` [Compound 168, N^2-cycloheptyl-N^4-(3-fluoro-4-methoxy-phenyl)-N^6-methyl-N^6-(1-methyl-piperidin-4-yl)-1,3,5-triazine-2,4,6-triamine citrate salt] was tested, and the “% IL6 production compare to TNF stimulation of IL6 (100%), HAEC, IL6, @ 5 uM” value (HAEC, TNF stimulated, compound 5 uM (bracketed value), citrate salt) was 40% and the “% IL6 production compare to TNF stimulation of IL6 (100%), Compds tested @ 10 uM HAEC, IL6” value (HAEC, TNF stimulated, compound 10 uM) was “total cell death”.

`COc1ccc(Nc2nc(NC3CCCCCC3)nc(OC3CCNCC3)n2)cc1Cl` was tested, and the “Inflammation Data, cell death at 10 uM” value (10 uM) was 20%.

For `CCN1CCCC1CNc1nc(NCC(F)(F)F)nc(Nc2ccc(OC)c(F)c2)n1` (stereo not drawn) [Compound 67, N^2-[(1-ethyl-2-pyrrolidinyl)methyl]-N^4-(3-fluoro-4-methoxyphenyl)-N^6-(2,2,2-trifluoroethyl)-1,3,5-triazine-2,4,6-triamine], the activity at 10 µM [3] was 25 to 50%.

`CCN1CCC[C@H]1CNc1nc(NCC2CCCCC2)nc(Nc2ccc(OC)c(F)c2)n1` [Compound 141, N^2-cyclohexylmethyl-N^4-((S)-1-ethyl-pyrrolidin-2-ylmethyl)-N^6-(3-fluoro-4-methoxyphenyl)-1,3,5-triazine-2,4,6-triamine] was tested, and the “% IL6 production compare to TNF stimulation of IL6 (100%), Compds tested @ 10 uM HAEC, IL6” value [1] was 23.44% and the activity at 10 µM [2] was 0 to 25%.

Work on `COc1ccc(Nc2nc(NC3CCCCCC3)nc(N3CCCCCC3)n2)cc1F` [Compound 83, N^2-cycloheptyl-N^4-(3-fluoro-4-methoxyphenyl)-6-hexahydro-1H-azepin-1-yl-1,3,5-triazine-2,4-diamine] yielded an activity at 10 µM [2] of 0 to 25%.

With `CCN1CCCC1CNc1nc(Nc2ccc(OC)c(F)c2)nc(NC2CCCC2)n1` (stereo not drawn) [Compound 56, N^2-cyclopentyl-N^4-[(1-ethyl-2-pyrrolidinyl)methyl]-N^6-(3-fluoro-4-methoxyphenyl)-1,3,5-triazine-2,4,6-triamine] the activity at 10 µM [2] was 0 to 25%.

With `CCN1CCCC1CNc1nc(NCC2CCCN2CC)nc(Nc2ccc(OC)c(F)c2)n1` (stereo not drawn) [Compound 70, N^2,N^4-bis[(1-ethyl-2-pyrrolidinyl)methyl]-N^6-(3-fluoro-4-methoxyphenyl)-1,3,5-triazine-2,4,6-triamine] the activity at 10 µM [2] was 0 to 25% and the activity at 10 µM [3] was 25 to 50%.

`CCN1CCCC1CNc1nc(Nc2ccc(OC)c(F)c2)nc(NC2CCCCC2)n1` (stereo not drawn) [Compound 55, N^2-cyclohexyl-N^4-[(1-ethyl-2-pyrrolidinyl)methyl]-N^6-(3-fluoro-4-methoxyphenyl)-1,3,5-triazine-2,4,6-triamine] showed an activity at 10 µM [2] of 0 to 25%.

`COc1ccc(Nc2nc(NC3CCCCCC3)nc(Oc3ccccc3F)n2)cc1Cl` [drawing 1605] was tested, and the “Inflammation Data (result in words)” value (concentration not given) was “Not Active”.

For `CCN1CCCC1CNc1nc(NC2CCCCCC2)nc(N(C)c2ccc(Cl)cc2)n1` (stereo not drawn) [Compound 40, N^2-(4-chlorophenyl)-N^4-cycloheptyl-N^6-[(1-ethyl-2-pyrrolidinyl)methyl]-N^2-methyl-1,3,5-triazine-2,4,6-triamine], the activity at 10 µM [3] was 0 to 25%.
